Measured values reported in paper PMC2892103 (Journal of molecular biology, 2010).

Target: T1, E. coli TrmD (Escherichia coli, UniProt P0A873)
T1 sequence (P0A873 1-255): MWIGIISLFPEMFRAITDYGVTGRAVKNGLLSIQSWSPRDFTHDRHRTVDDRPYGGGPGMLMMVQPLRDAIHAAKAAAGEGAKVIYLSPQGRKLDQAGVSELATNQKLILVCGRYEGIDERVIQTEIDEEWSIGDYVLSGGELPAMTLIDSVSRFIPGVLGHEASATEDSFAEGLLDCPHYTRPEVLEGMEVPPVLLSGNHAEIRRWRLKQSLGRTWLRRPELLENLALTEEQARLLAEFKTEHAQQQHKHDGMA
Assay: intrinsic tryptophan fluorescence quenching, quadratic fit
Format: binding

| Kd [nM] | SMILES |
| --- | --- |
| 330 ± 40 | Nc1ncnc2c1ncn2[C@@H]1O[C@H](CSCC[C@H](N)C(=O)O)[C@@H](O)[C@H]1O [AdoHcy] |
| 1100 ± 200 | C[S+](CC[C@H](N)C(=O)O)C[C@H]1O[C@@H](n2cnc3c(N)ncnc32)[C@H](O)[C@@H]1O (some centres unmarked) [AdoMet] |
